In paper PMC9506414, “Novel 2,6,9-Trisubstituted Purines as Potent CDK Inhibitors Alleviating Trastuzumab-Resistance of HER2-Positive Breast Cancers” (Pharmaceuticals, 2022):

Assays:
Assay in all cases: Kinome-wide inhibition profiling
Type in all cases: biochemical
[1] = molecular target: T1, IKK-alpha (Homo sapiens, UniProt O15111)
T1 construct: purchased Reaction Biology Corp
Experimental: (§1) In vitro CDK12/cyclinK assays for all compounds and in vitro kinome-wide inhibition profiling of 30d at 10 μM were performed by a CRO company (Reaction Biology Corp., San Diego, CA, USA).

[2] = molecular target: T2, LKB1 (Homo sapiens, UniProt Q15831)
T2 construct: purchased Reaction Biology Corp
Experimental: as §1

[3] = molecular target: T3, PIM1 (Homo sapiens, UniProt P11309)
T3 construct: purchased Reaction Biology Corp
Experimental: as §1

[4] = molecular target: T4, SRPK1 (Homo sapiens, UniProt Q96SB4)
T4 construct: purchased Reaction Biology Corp
Experimental: as §1

[5] = molecular target: T5, RPS6KA4(Kin.Dom.1-N-term) (Homo sapiens, UniProt O75676)
T5 construct: RPS6KA4(Kin.Dom.1-N-term); purchased Reaction Biology Corp
Experimental: as §1

[6] = molecular target: T6, NEK2 (Homo sapiens, UniProt P51955)
T6 construct: purchased Reaction Biology Corp
Experimental: as §1

[7] = molecular target: T7, ABL2 (Homo sapiens, UniProt P42684)
T7 construct: purchased Reaction Biology Corp
Experimental: as §1

[8] = molecular target: T8, SGK1 (Homo sapiens, UniProt O00141)
T8 construct: purchased Reaction Biology Corp
Experimental: as §1

[9] = molecular target: T9, ACVR1B (Homo sapiens, UniProt P36896)
T9 construct: purchased Reaction Biology Corp
Experimental: as §1

[10] = molecular target: T10, TLK2 (Homo sapiens, UniProt Q86UE8)
T10 construct: purchased Reaction Biology Corp
Experimental: as §1

[11] = molecular target: T11, CSNK1A1 (Homo sapiens, UniProt P48729)
T11 construct: purchased Reaction Biology Corp
Experimental: as §1

[12] = molecular target: T12, PKCb2 (Homo sapiens, UniProt P05771)
T12 construct: purchased Reaction Biology Corp
Experimental: as §1

[13] = molecular target: T13, PRKD3 (Homo sapiens, UniProt O94806)
T13 construct: purchased Reaction Biology Corp
Experimental: as §1

[14] = molecular target: T14, CSNK2A1 (Homo sapiens, UniProt P68400)
T14 construct: purchased Reaction Biology Corp
Experimental: as §1

[15] = molecular target: T15, BRSK2 (Homo sapiens, UniProt Q8IWQ3)
T15 construct: purchased Reaction Biology Corp
Experimental: as §1

[16] = molecular target: T16, DYRK1A (Homo sapiens, UniProt Q13627)
T16 construct: purchased Reaction Biology Corp
Experimental: as §1

[17] = molecular target: T17, TTBK1 (Homo sapiens, UniProt Q5TCY1)
T17 construct: purchased Reaction Biology Corp
Experimental: as §1

[18] = molecular target: T18, WNK1 (Homo sapiens, UniProt Q9H4A3)
T18 construct: purchased Reaction Biology Corp
Experimental: as §1

[19] = molecular target: T19, NEK11 (Homo sapiens, UniProt Q8NG66)
T19 construct: purchased Reaction Biology Corp
Experimental: as §1

[20] = molecular target: T20, MLK4 (Homo sapiens, UniProt Q5TCX8)
T20 construct: purchased Reaction Biology Corp
Experimental: as §1

[21] = molecular target: T21, MYLK3 (Homo sapiens, UniProt Q32MK0)
T21 construct: purchased Reaction Biology Corp
Experimental: as §1

[22] = molecular target: T22, GRK2 (Homo sapiens, UniProt P25098)
T22 construct: purchased Reaction Biology Corp
Experimental: as §1

[23] = molecular target: T23, CDC7/DBF4 (Homo sapiens, UniProt O00311)
T23 construct: purchased Reaction Biology Corp
Experimental: as §1

[24] = molecular target: T24, PAK1 (Homo sapiens, UniProt Q13153)
T24 construct: purchased Reaction Biology Corp
Experimental: as §1

[25] = molecular target: T25, MASTL (Homo sapiens, UniProt Q96GX5)
T25 construct: purchased Reaction Biology Corp
Experimental: as §1

[26] = molecular target: T26, MAK (Homo sapiens, UniProt P20794)
T26 construct: purchased Reaction Biology Corp
Experimental: as §1

[27] = molecular target: T27, JNK3 (Homo sapiens, UniProt P53779)
T27 construct: purchased Reaction Biology Corp
Experimental: as §1

[28] = molecular target: T28, PCTK3 (Homo sapiens, UniProt Q07002)
T28 construct: purchased Reaction Biology Corp
Experimental: as §1

[29] = molecular target: T29, MLCK (Homo sapiens, UniProt Q15746)
T29 construct: purchased Reaction Biology Corp
Experimental: as §1

[30] = molecular target: T30, RSK4 (Homo sapiens, UniProt Q9UK32)
T30 construct: purchased Reaction Biology Corp
Experimental: as §1

[31] = molecular target: T31, GSK3a (Homo sapiens, UniProt P49840)
T31 construct: purchased Reaction Biology Corp
Experimental: as §1

[32] = molecular target: T32, DAPK2 (Homo sapiens, UniProt Q9UIK4)
T32 construct: purchased Reaction Biology Corp
Experimental: as §1

[33] = molecular target: T33, JAK3 (Homo sapiens, UniProt P52333)
T33 construct: purchased Reaction Biology Corp
Experimental: as §1

[34] = molecular target: T34, BMPR1B (Homo sapiens, UniProt O00238)
T34 construct: purchased Reaction Biology Corp
Experimental: as §1

[35] = molecular target: T35, CLK2 (Homo sapiens, UniProt P49760)
T35 construct: purchased Reaction Biology Corp
Experimental: as §1

[36] = molecular target: T36, JAK2 (Homo sapiens, UniProt O60674)
T36 construct: purchased Reaction Biology Corp
Experimental: as §1

[37] = molecular target: T37, PRKG2 (Homo sapiens, UniProt Q13237)
T37 construct: purchased Reaction Biology Corp
Experimental: as §1

[38] = molecular target: T38, RIPK5 (Homo sapiens, UniProt Q6XUX3)
T38 construct: purchased Reaction Biology Corp
Experimental: as §1

[39] = molecular target: T39, ROS1 (Homo sapiens, UniProt P08922)
T39 construct: purchased Reaction Biology Corp
Experimental: as §1

[40] = molecular target: T40, TYK2 (Homo sapiens, UniProt P29597)
T40 construct: purchased Reaction Biology Corp
Experimental: as §1

[41] = molecular target: T41, MEK1 (Homo sapiens, UniProt Q02750)
T41 construct: purchased Reaction Biology Corp
Experimental: as §1

[42] = molecular target: T42, MAP3K1 (Homo sapiens, UniProt Q13233)
T42 construct: purchased Reaction Biology Corp
Experimental: as §1

T2 sequence (Q15831 whole entry): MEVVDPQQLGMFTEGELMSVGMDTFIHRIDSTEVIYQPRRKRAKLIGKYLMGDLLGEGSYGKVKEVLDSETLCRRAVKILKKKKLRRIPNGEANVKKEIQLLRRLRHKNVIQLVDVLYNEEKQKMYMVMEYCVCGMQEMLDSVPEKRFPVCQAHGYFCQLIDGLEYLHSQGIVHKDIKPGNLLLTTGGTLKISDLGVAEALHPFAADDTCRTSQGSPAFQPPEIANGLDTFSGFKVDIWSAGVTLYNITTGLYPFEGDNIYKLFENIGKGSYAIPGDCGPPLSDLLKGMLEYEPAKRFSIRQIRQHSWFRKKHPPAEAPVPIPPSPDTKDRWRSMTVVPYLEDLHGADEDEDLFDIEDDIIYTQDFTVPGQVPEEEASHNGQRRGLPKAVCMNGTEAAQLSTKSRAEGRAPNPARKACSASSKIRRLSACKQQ
T2 sequence (Q7RTN6 whole entry partner): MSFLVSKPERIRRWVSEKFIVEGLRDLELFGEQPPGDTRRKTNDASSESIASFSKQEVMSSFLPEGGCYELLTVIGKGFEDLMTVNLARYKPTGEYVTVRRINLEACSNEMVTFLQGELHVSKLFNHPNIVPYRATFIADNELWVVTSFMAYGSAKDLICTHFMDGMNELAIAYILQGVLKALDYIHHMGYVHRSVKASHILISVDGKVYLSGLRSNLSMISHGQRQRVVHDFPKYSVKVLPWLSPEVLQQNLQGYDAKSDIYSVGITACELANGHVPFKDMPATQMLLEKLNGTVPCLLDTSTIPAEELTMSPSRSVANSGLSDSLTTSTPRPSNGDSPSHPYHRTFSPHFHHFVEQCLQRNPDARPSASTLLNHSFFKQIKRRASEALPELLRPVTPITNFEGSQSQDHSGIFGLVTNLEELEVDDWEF
T2 sequence (Q9Y376 whole entry partner): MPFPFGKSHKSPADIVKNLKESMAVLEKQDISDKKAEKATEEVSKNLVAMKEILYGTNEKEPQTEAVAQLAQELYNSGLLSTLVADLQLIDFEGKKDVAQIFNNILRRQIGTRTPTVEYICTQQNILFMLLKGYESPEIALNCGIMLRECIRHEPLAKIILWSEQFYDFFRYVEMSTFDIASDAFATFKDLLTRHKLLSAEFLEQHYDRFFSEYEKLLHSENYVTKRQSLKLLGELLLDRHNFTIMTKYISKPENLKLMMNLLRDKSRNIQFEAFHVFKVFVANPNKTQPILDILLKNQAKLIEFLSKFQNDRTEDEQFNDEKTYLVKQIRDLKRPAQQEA
T28 sequence (Q07002 whole entry): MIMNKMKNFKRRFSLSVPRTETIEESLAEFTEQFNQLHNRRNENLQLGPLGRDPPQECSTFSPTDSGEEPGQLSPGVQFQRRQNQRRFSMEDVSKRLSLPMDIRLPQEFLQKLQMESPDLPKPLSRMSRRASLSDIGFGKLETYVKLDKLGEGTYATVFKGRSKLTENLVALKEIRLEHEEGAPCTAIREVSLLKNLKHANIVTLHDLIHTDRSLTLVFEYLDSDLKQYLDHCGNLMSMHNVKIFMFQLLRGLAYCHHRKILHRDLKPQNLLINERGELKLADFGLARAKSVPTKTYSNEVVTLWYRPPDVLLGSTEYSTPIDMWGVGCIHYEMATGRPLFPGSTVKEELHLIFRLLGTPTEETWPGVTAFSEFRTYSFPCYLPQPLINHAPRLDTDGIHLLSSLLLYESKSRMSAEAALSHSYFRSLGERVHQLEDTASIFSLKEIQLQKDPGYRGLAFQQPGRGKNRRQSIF
T28 sequence (Q8ND76 whole entry partner): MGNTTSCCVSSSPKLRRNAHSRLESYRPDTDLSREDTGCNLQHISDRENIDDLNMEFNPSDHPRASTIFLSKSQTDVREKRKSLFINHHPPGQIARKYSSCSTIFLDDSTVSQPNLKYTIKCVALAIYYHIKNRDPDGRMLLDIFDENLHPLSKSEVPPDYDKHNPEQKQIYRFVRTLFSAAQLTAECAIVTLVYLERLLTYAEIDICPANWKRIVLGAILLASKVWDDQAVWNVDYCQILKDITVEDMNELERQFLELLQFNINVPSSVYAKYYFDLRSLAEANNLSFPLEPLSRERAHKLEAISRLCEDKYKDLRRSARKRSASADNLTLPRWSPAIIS
T26 sequence (P20794 whole entry): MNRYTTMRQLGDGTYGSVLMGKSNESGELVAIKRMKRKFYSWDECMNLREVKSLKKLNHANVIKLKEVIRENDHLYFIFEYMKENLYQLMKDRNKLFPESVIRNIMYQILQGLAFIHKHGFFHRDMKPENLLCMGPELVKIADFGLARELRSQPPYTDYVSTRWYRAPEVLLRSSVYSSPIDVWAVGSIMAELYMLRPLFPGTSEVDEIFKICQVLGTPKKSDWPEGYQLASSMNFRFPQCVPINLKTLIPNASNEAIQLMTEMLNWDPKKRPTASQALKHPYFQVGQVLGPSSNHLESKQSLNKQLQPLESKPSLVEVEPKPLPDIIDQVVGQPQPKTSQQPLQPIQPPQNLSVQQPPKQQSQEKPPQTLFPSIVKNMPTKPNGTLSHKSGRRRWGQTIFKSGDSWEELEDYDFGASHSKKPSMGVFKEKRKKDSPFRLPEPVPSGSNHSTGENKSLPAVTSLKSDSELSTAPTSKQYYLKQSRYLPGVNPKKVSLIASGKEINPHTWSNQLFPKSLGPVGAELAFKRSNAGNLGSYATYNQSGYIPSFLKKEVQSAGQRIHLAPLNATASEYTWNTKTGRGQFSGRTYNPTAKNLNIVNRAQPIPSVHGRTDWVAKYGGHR
T12 sequence (P05771 1-673 isoform P05771-2): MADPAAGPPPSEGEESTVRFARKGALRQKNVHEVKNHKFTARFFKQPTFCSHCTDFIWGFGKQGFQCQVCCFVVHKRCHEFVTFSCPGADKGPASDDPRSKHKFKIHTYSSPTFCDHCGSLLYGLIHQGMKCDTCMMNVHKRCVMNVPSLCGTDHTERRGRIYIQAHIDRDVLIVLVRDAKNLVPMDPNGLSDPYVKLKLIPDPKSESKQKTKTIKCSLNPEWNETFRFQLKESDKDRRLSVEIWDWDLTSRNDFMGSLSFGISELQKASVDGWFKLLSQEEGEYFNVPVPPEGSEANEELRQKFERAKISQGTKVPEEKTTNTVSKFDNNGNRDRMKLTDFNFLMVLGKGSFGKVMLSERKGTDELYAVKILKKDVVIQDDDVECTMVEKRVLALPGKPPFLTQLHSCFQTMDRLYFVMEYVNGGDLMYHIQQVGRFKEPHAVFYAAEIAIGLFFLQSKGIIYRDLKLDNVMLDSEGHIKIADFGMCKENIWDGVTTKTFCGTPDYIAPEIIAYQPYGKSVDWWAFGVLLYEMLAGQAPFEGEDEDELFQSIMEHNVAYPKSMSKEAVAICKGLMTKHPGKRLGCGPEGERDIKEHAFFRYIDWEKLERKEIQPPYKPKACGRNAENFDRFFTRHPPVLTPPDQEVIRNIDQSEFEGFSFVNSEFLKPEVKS
T14 sequence (P68400 whole entry): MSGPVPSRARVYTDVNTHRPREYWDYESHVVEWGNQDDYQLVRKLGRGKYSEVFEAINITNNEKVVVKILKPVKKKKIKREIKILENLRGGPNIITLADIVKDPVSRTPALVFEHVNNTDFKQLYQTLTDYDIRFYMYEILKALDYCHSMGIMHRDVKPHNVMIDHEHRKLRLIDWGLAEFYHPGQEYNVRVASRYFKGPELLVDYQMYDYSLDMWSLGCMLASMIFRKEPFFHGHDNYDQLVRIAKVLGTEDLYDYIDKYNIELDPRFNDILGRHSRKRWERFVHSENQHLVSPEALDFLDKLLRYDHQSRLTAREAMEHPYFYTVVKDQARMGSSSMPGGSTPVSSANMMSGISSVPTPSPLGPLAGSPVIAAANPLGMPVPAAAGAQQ
T38 sequence (Q6XUX3 whole entry): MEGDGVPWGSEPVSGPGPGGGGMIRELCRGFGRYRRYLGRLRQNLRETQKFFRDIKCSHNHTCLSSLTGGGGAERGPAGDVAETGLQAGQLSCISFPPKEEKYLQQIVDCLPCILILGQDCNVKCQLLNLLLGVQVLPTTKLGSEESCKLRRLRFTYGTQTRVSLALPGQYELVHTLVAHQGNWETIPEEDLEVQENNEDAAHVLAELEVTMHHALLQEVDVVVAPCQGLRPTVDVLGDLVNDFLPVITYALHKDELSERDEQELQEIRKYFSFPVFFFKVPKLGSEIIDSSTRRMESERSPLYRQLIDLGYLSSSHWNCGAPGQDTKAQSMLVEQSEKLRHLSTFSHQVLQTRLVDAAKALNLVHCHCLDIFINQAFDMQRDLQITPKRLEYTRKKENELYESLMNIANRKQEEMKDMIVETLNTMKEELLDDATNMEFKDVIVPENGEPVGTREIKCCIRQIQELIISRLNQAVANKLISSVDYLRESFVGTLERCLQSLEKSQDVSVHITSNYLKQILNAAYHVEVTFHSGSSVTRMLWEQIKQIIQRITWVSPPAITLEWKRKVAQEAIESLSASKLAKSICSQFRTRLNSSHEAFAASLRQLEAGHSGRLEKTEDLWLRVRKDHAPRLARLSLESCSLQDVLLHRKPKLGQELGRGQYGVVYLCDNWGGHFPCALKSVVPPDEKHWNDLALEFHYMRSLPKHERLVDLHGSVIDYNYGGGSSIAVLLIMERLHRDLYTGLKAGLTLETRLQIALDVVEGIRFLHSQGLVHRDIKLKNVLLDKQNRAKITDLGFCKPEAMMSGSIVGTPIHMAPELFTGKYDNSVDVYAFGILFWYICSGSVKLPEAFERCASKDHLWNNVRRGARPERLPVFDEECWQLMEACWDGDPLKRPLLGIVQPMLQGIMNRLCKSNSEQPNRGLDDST
T3 sequence (P11309 whole entry): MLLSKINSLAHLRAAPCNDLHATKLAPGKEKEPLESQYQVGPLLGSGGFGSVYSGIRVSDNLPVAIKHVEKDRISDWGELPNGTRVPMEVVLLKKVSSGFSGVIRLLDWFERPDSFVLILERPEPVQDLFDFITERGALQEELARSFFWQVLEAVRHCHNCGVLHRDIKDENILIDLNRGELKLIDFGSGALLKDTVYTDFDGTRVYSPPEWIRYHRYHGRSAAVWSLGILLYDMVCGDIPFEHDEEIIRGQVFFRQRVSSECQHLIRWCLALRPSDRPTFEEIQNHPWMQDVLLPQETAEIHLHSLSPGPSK

**Q.** With `CCn1cnc2c(NCc3ccc(-c4ccccn4)nc3)nc(-c3ccc(N)nc3)nc21` [Compound 30d, N-([2,2′-Bipyridin]-5-ylmethyl)-2-(6-aminopyridin-3-yl)-9-ethyl-9H-purin-6-amine] as the molecule, how does the remaining activity at 10 µM [1] read?
**A.** Its remaining activity at 10 µM is 71.5%.

**Q.** And the inhibition at 10 µM [2]?
**A.** The inhibition at 10 µM was > 95%.

**Q.** And the remaining activity at 10 µM [2]?
**A.** Its remaining activity at 10 µM is 0.1%.

**Q.** What about the remaining activity at 10 µM [3] of the same molecule?
**A.** Its remaining activity at 10 µM is 97.8%.

**Q.** What about the remaining activity at 10 µM [4] of the same molecule?
**A.** Its remaining activity at 10 µM is 54.3%.

**Q.** And the remaining activity at 10 µM [5]?
**A.** Its remaining activity at 10 µM is 115%.

**Q.** And the remaining activity at 10 µM [6]?
**A.** Its remaining activity at 10 µM is 91.1%.

**Q.** And the remaining activity at 10 µM [7]?
**A.** The remaining activity at 10 µM was 56.1%.

**Q.** And the remaining activity at 10 µM [8]?
**A.** Its remaining activity at 10 µM is 84.9%.

**Q.** And the remaining activity at 10 µM [9]?
**A.** Its remaining activity at 10 µM is 132%.

**Q.** And the remaining activity at 10 µM [10]?
**A.** Its remaining activity at 10 µM is 72.2%.

**Q.** And the remaining activity at 10 µM [11]?
**A.** Its remaining activity at 10 µM is 26.5%.

**Q.** And the remaining activity at 10 µM [12]?
**A.** The remaining activity at 10 µM was 39.6%.

**Q.** And the remaining activity at 10 µM [13]?
**A.** Its remaining activity at 10 µM is 54.3%.

**Q.** What about the remaining activity at 10 µM [14] of the same molecule?
**A.** Its remaining activity at 10 µM is 84.2%.

**Q.** What about the remaining activity at 10 µM [15] of the same molecule?
**A.** Its remaining activity at 10 µM is 97.5%.

**Q.** What about the inhibition at 10 µM [16] of the same molecule?
**A.** Its inhibition at 10 µM is > 95%.

**Q.** What about the remaining activity at 10 µM [16] of the same molecule?
**A.** The remaining activity at 10 µM was 3.9%.

**Q.** And the remaining activity at 10 µM [17]?
**A.** The remaining activity at 10 µM was 108%.

**Q.** And the remaining activity at 10 µM [18]?
**A.** The remaining activity at 10 µM was 82.5%.

**Q.** What about the remaining activity at 10 µM [19] of the same molecule?
**A.** The remaining activity at 10 µM was 94.3%.

**Q.** And the remaining activity at 10 µM [20]?
**A.** The remaining activity at 10 µM was 114%.

**Q.** What about the remaining activity at 10 µM [21] of the same molecule?
**A.** Its remaining activity at 10 µM is 105%.

**Q.** What about the remaining activity at 10 µM [22] of the same molecule?
**A.** The remaining activity at 10 µM was 99.1%.

**Q.** What about the remaining activity at 10 µM [23] of the same molecule?
**A.** The remaining activity at 10 µM was 98.2%.

**Q.** And the remaining activity at 10 µM [24]?
**A.** The remaining activity at 10 µM was 24.5%.

**Q.** What about the remaining activity at 10 µM [25] of the same molecule?
**A.** Its remaining activity at 10 µM is 103%.

**Q.** And the inhibition at 10 µM [26]?
**A.** Its inhibition at 10 µM is > 95%.

**Q.** And the remaining activity at 10 µM [26]?
**A.** Its remaining activity at 10 µM is 3.3%.

**Q.** What about the remaining activity at 10 µM [27] of the same molecule?
**A.** Its remaining activity at 10 µM is 48.7%.

**Q.** What about the inhibition at 10 µM ([28]; CDK18) of the same molecule?
**A.** Its inhibition at 10 µM is > 95%.

**Q.** What about the remaining activity at 10 µM ([28]; PCTK3 (listed as CDK18 in Figure 6)) of the same molecule?
**A.** The remaining activity at 10 µM was 2.5%.

**Q.** And the remaining activity at 10 µM [29]?
**A.** Its remaining activity at 10 µM is 63.4%.

**Q.** And the remaining activity at 10 µM [30]?
**A.** Its remaining activity at 10 µM is 54.2%.

**Q.** And the remaining activity at 10 µM [31]?
**A.** Its remaining activity at 10 µM is 10.6%.

**Q.** What about the remaining activity at 10 µM [32] of the same molecule?
**A.** Its remaining activity at 10 µM is 85.7%.

**Q.** What about the remaining activity at 10 µM [33] of the same molecule?
**A.** Its remaining activity at 10 µM is 99.7%.

**Q.** What about the remaining activity at 10 µM [34] of the same molecule?
**A.** The remaining activity at 10 µM was 115%.

**Q.** And the remaining activity at 10 µM [35]?
**A.** Its remaining activity at 10 µM is 11.7%.

**Q.** What about the remaining activity at 10 µM [36] of the same molecule?
**A.** The remaining activity at 10 µM was 87%.

**Q.** And the remaining activity at 10 µM [37]?
**A.** Its remaining activity at 10 µM is 99.5%.

**Q.** What about the remaining activity at 10 µM [38] of the same molecule?
**A.** Its remaining activity at 10 µM is 67.8%.

**Q.** And the remaining activity at 10 µM [39]?
**A.** Its remaining activity at 10 µM is 27.8%.

**Q.** What about the remaining activity at 10 µM [40] of the same molecule?
**A.** The remaining activity at 10 µM was 90.7%.

**Q.** And the remaining activity at 10 µM [41]?
**A.** The remaining activity at 10 µM was 149%.

**Q.** What about the remaining activity at 10 µM [42] of the same molecule?
**A.** Its remaining activity at 10 µM is 87%.
